Data: US9730444B2, “Herbicidal compositions comprising isoxaben and aminopyralid” (Dow AgroSciences LLC, priority 2013, dated 2017)

Assays:
[1] = test system: GERDI = Geranium dissectum (cutleaf geranium); assay: Small plot field trial in winter wheat, foliar-applied, visual % control of GERDI; format: in vivo; conditions: Trial 1, observed mean, 200 L/ha water, winter wheat crop stage 12-13, rates: isoxaben 40 g ai/ha, aminopyralid 5 g ae/ha, flufenacet 200 g ai/ha, diflufenican 100 g ai/ha
Excerpt: (§1) Results in Table 1 are for foliar-applied compositions in small plot research experiments to evaluate the efficacy of the compositions in winter wheat. Application water volume was 200 liters per hectare (L/ha). Crop stage at time of application was 12-13. The values reported are means. […] Colby's equation was used to determine the herbicidal effects expected from the mixtures (Colby, S. R. Calculation of the synergistic and antagonistic response of herbicide combinations. Weeds 1967, 15, 20-22.).
(§2) More specifically, the following equation is used to calculate the expected activity of mixtures containing two herbicical active ingredients: Expected=A+B−(A×B/100) • A=observed efficacy of a first active ingredient at the same concentration as used in the mixture; • B=observed efficacy of the second active ingredient (or product, which may contain a combination of active ingredients) at the same concentration as used in the mixture. For mixtures containing three herbicidal active ingredients, the following equation was used to calculate the expected activity:
(§3) [formula] • A=observed efficacy of a first active ingredient at the same concentration as used in the mixture; • B=observed efficacy of a second active ingredient B at the same concentration as used in the mixture; • C=observed efficacy of a third active ingredient C at the same concentration as used in the mixture. The following abbreviations are used in Table 1: • GERDI=Geranium dissectum (cutleaf geranium) • STEME=Stellaria media (L.) Vill. (common chickweed) • g ai/ha=grams active ingredient per hectare • g ae/ha=grams acid equivalent per hectare • Ob=observed value of percent (%) control rated visually • Ex=expected value of percent (%) control as calculated by Colby's equation

[2] = test system: STEME = Stellaria media (L.) Vill. (common chickweed); assay: Small plot field trial in winter wheat, foliar-applied, visual % control of STEME; format: in vivo; conditions: Trial 1, observed mean, 200 L/ha water, winter wheat crop stage 12-13, rates: isoxaben 40 g ai/ha, aminopyralid 5 g ae/ha, flufenacet 200 g ai/ha, diflufenican 100 g ai/ha
Excerpt: as §1, §2, §3

Structure (SMILES) | VISUAL % CONTROL OF GERDI 28 DAT Ob [1] | VISUAL % CONTROL OF STEME 28 DAT Ob [2]
Nc1cc(Cl)nc(C(=O)O)c1Cl [aminopyralid, 4-amino-3,6-dichloropyridine-2-carboxylic acid] | 0 d % | 0 e %
CC(C)N(C(=O)COc1nnc(C(F)(F)F)s1)c1ccc(F)cc1 [flufenacet, N-(4-fluorophenyl)-N-(1-methylethyl)-2-[[5-(trifluoromethyl)-1,3,4-thiadiazol-2-yl]oxy]acetamide] | 0 d % | 0 e %
CCC(C)(CC)c1cc(NC(=O)c2c(OC)cccc2OC)on1 [isoxaben, N-[3-(1-ethyl-1-methylpropyl)isoxazol-5-yl]-2,6-dimethoxybenzamide] | 0 d % | 0 e %
